Measurements from patent US20260069539A1, “LIPIDOID COMPOUNDS AND RELATED COMPOSITIONS AND USES” (Poseida Therapeutics, Inc., priority 2023, published 2026).
One block for each compound: values may come before it.

Legend:
liver cells [1] = assay: In vivo LNP delivery of fLuciferase mRNA, bioluminescent imaging (BLI) at 4 hr; design: species or system BALB/C mice; details: for Mean Luciferase Flux: 0.5 mg/kg fLuc mRNA i.v., 4 hr
Method: Adult female BALB/C mice (n=3/group) were intravenously administered 0.5 mg/kg of 5′-CleanCap—fLuciferase mRNA (TriLink Biotech) formulated with the LNP compositions shown in Table 6. One group of mice was treated with vehicle (PBS, Thermo Fisher Scientific, USA) as a negative control.
(§1) The location and extent of luciferase expression in treated and control mice were determined at 4 hr for mRNA and 48 hr for DNA by bioluminescent imaging (BLI) of anesthetized mice using an IVIS Lumina in vivo imaging system (Perkin Elmer) according to the manufacturer's instructions. Briefly, mice were anesthetized using isoflurane in oxygen, and placed supine on a heated stage. Mice were then administered D-luciferin (Perkin-Elmer #122799) IP, and BLI was performed.
as §1, with “hr” for “hr for mRNA and 48 hr for DNA”
as §1, with “hr” for “hr for mRNA and 48 hr for DNA”
The location and extent of luciferase expression in treated and control mice were determined at 4 hr by bioluminescent imaging (BLI) of anesthetized mice using an IVIS Lumina in vivo imaging system (Perkin Elmer) according to the manufacturer's instructions.
Briefly, mice were anesthetized using isoflurane in oxygen, and placed supine on a heated stage. Mice were then administered D-luciferin (Perkin-Elmer #122799) IP, and BLI was performed.
as §1, with “hr” for “hr for mRNA and 48 hr for DNA”

[2] = Body weight change / body weight loss 24 hours post-administration of LNP; format: in vivo, BALB/C mice
Method: In addition, the body weight of mice treated with LNP compositions of the present disclosure prepared as described in Example 77 was assessed prior to intravenous administration and 24 hours post-administration and the body weights at baseline and post-treatment were compared.
In addition, the body weight of mice treated with LNP compositions of the present disclosure was assessed prior to intravenous administration and 24 hours post-administration and the body weights at baseline and post-treatment were compared.
Body weight loss (BWL) measurements were taken at 24 hrs post administration and luciferase expression was measured by whole body luminescence imaging (BLI) at 48 hours post-administration.
(§2) Blood was drawn from control and treated mice 4 hrs post-administration for cytokine analysis, body weight loss (BWL) measurements were taken at 24 hrs post administration and luciferase expression was measured by whole body luminescence imaging (BLI) at 48 hours post-administration.

liver cells [3] = assay: In vivo LNP delivery of DNA encoding firefly luciferase, bioluminescent imaging (BLI) at 48 hr; design: species or system BALB/C mice; details: for Total Flux: Example 103, 0.5 mg/kg DNA intravenous, BLI at 48 hr; for Mean Luciferase Flux: DNA encoding firefly luciferase, 48 hr
Method: Adult BALB/C mice (n=3) were administered 0.5 mg/kg of DNA encoding firefly luciferase (Nature Technology Corp) formulated in a LNP composition listed in Table 4. One group of mice was treated with vehicle (PBS, Thermo Fisher Scientific, USA) as a negative control.
as §1, with “at” for “at 4 hr for mRNA and”, “DNA delivery” for “DNA”
as §1, with “at” for “at 4 hr for mRNA and”, “performed. […]” for “performed.”
Body weight loss (BWL) measurements were taken at 24 hrs post administration and luciferase expression was measured by whole body luminescence imaging (BLI) at 48 hours post-administration. […]
Luciferase expression was measured by whole body luminescence imaging (BLI) at 48 hours post-administration.

pcsk9 protein = assay: Serum Pcsk9 ELISA 7 days after LNP delivery of Cas-CLOVER mRNA and pcsk9 gRNAs (in vivo gene editing); design: species or system mouse; details: serum 7 days
Method: In two separate experiments, each group of adult female BALB/C mice (n=2/group) was intravenously co-administered mRNA encoding 5′-CleanCap-5MeC-Cas-CLOVER (SEQ ID NO: 5) and a pair of gRNAs (SEQ ID NOs: 6 and 7) targeted to the first exon of the mouse pcsk9 gene.
After seven days post-administration, blood samples were drawn from the subjects. Briefly, 500 μL of blood was collected after euthanasia via cardiac puncture using 2 ml syringes and 25G needles, transferred to microcentrifuge tubes, incubated at room temperature for 1 hour, and centrifuged at 1500 g for 15 minutes to separate the cellular fraction from serum. Serum fraction (200 μL) was transferred to a new tube and stored at −80C until further analysis.
Serum levels of the pcsk9 protein in the mice were measured 7 days after administration. Results are shown in Table 23 for the first experiment and Table 24 for the second experiment. Briefly, a mouse Pcsk9 ELISA kit (Biolegend) was used to determine Pcsk9 in each serum sample following manufacturer's instructions. All serum samples were assayed in triplicate and results were expressed as percentage in Pcsk9 levels compared with Pcsk9 levels of PBS-treated mice.

[4] = tested on: proinflammatory cytokines IL-6, INF-G, TNF-α, MCP-1, MIP-1a/MIP-1b; assay: Serum proinflammatory cytokine levels (ELISA) 4 hours after LNP administration; format: in vivo, BALB/C mice; details: 0.5 mg/kg fLuc mRNA i.v., serum at 4 hours
Method: The levels of five proinflammatory cytokines present in serum were evaluated at 4 hours after LNP administration for each of the tested concentrations. Briefly, serum samples were prepared as described for liver enzyme analysis and the serum concentration of each cytokine was determined using commercially available ELISA kits (e.g., R&D Systems Quantikine ELISA kits). The levels of the proinflammatory cytokines interleukin-6 (IL-6), interferon gamma (INF-G), tumor necrosis factor alpha (TNF-α), monocyte chemoattractant protein-1 (MCP-1), macrophage inflammatory protein-1 alpha (MIP-1a) in mice treated with LNPs of the present disclosure compared to vehicle treated mice at 4 hours are shown in Table 18.
(§3) The levels of five proinflammatory cytokines present in serum were evaluated at 4 hours after LNP administration as described in Example 81. The levels of the proinflammatory cytokines interleukin-6 (IL-6), interferon gamma (INF-G), tumor necrosis factor alpha (TNF-a), monocyte chemoattractant protein-1 (MCP-1), macrophage inflammatory protein-1 beta (MIP-1b) in mice treated with LNPs of the present disclosure are shown in Table 35.
as §3, with “38 and Table 39.” for “35.”
as §3, with “(TNF-α),” for “(TNF-a),”, “44.” for “35.”
as §2

[5] = Table 14 experiment, LNP with 43.17 % moles of the compound (Lipid:RNA 80)
[6] = Table 14 experiment, LNP with 50 % moles of the compound (Lipid:RNA 80)
[7] = DNA LNP with 43.17 % moles of the compound
[8] = DNA LNP with 50 % moles of the compound
[9] = LNP with 43.17 % moles of the compound (DOPC 11.96/Chol 43.17/PEG-DMG 1.7, Lipid:DNA 80)
[10] = LNP with 50 % moles of the compound (DOPC 10/Chol 38.5/PEG-DMG 1.5, Lipid:DNA 80)
[11] = LNP with 40.8 (40.75) % moles Compound No. 40
[12] = LNP with 50 % moles Compound No. 40

Compound: CCCCC[C@H]1CC[C@H](C(=O)OCC(COC(=O)CCCCCN(CCCO)CCCCCC(=O)COC(COC(=O)[C@H]2CC[C@H](CCCCC)CC2)COC(=O)[C@H]2CC[C@H](CCCCC)CC2)COC(=O)[C@H]2CC[C@H](CCCCC)CC2)CC1 [COMPOUND NO. 37]
Mean Luciferase Flux (liver cells [1]; [5]): 3.49E+11 p/s
Mean Luciferase Flux (liver cells [1]; [6]): 3.55E+11 p/s
% body weight change [2, 7]: −6.0%
% body weight change [2, 8]: −10.7%
Total Flux (liver cells [3]; LNP with 10% DOPC): 7.64E+07 p/s
Total Flux (liver cells [3]; LNP with 10% DSPC): 1.58E+08 p/s
Mean Luciferase Flux (liver cells [3]; [9]): 5.80E+07 p/s
Mean Luciferase Flux (liver cells [3]; [10]): 1.28E+08 p/s
% Pcsk9 compared to control (pcsk9 protein; DSPC:DOPC molar ratio 5%:5% in LNP, 0.5 mg/kg, lipid:RNA 80:1): 50.4%
% Pcsk9 compared to control (pcsk9 protein; DSPC:DOPC molar ratio 10%:0% in LNP, 0.5 mg/kg, lipid:RNA 80:1): 39.7%
% Pcsk9 compared to control (pcsk9 protein; LNP dose 0.5 mg/kg, COMPOUND NO. 37:DOPC:Cholesterol:DMG-PEG2000 50:10:38.5:1.5, lipid:RNA 80:1): 40.6%
% Pcsk9 compared to control (pcsk9 protein; LNP dose 1.0 mg/kg, COMPOUND NO. 37:DOPC:Cholesterol:DMG-PEG2000 50:10:38.5:1.5, lipid:RNA 80:1): 23.8%

Compound: CCCCC[C@H]1CC[C@H](C(=O)OCC(COC(=O)CCCCCN(CCO)CCCCCC(=O)COC(COC(=O)[C@H]2CC[C@H](CCCCC)CC2)COC(=O)[C@H]2CC[C@H](CCCCC)CC2)COC(=O)[C@H]2CC[C@H](CCCCC)CC2)CC1 [COMPOUND NO. 36]
RNA delivery potency (liver cells [1]; 0.5 mg/kg fLuciferase mRNA in LNP, BLI at 4 hr): RNA delivery potency increases with increasing number of cyclohexyl-substituted tails
Total Flux (liver cells [1]; Example 104, experiment of Table 64, 0.5 mg/kg fLuciferase mRNA intravenous, BLI at 4 hr): 3.25E+11 p/s
Mean Luciferase Flux (liver cells [1]; [5]): 1.31E+11 p/s
Mean Luciferase Flux (liver cells [1]; [6]): 1.19E+11 p/s
% body weight change [2, 7]: −4.9%
% body weight change [2, 8]: −6.7%
Total Flux (liver cells [3]; LNP with 10% DOPC): 7.52E+07 p/s
Total Flux (liver cells [3]; LNP with 10% DSPC): 1.23E+08 p/s
Mean Luciferase Flux (liver cells [3]; [9]): 7.99E+07 p/s
Mean Luciferase Flux (liver cells [3]; [10]): 1.82E+08 p/s

IL-6 cytokine fold changes in treated mice relative to untreated mice [4, 11]: 0.4 fold
INF-G cytokine fold changes in treated mice relative to untreated mice [4, 11]: 1.5 fold
MCP-1 cytokine fold changes in treated mice relative to untreated mice [4, 11]: 1.6 fold
MIP-1a cytokine fold changes in treated mice relative to untreated mice [4, 11]: 1.4 fold
TNF-a cytokine fold changes in treated mice relative to untreated mice [4, 11]: 1.0 fold
IL-6 cytokine fold changes in treated mice relative to untreated mice [4, 12]: 0.6 fold
INF-G cytokine fold changes in treated mice relative to untreated mice [4, 12]: 2.0 fold
MCP-1 cytokine fold changes in treated mice relative to untreated mice [4, 12]: 5.2 fold
MIP-1a cytokine fold changes in treated mice relative to untreated mice [4, 12]: 3.8 fold
TNF-a cytokine fold changes in treated mice relative to untreated mice [4, 12]: 1.1 fold
Compound: CCCCCC(=O)OCC1CCC(COC(=O)C(CCCN(CCO)CCCC(C(=O)OCC2CCC(COC(=O)CCCCC)CC2)C(=O)OCC2CCC(COC(=O)CCCCC)CC2)C(=O)OCC2CCC(COC(=O)CCCCC)CC2)CC1 (stereo not drawn) [COMPOUND NO. 40]
Mean Luciferase Flux (liver cells [1]; Table 15 experiment, LNP with 40.75 % moles of the compound (Lipid:RNA 80)): 2.20E+10 p/s
Mean Luciferase Flux (liver cells [1]; Table 15 experiment, LNP with 50 % moles of the compound (Lipid:RNA 80)): 1.02E+11 p/s
% body weight change ([2]; LNP with 40.75 % moles of the compound, fLuc mRNA 0.5 mg/kg i.v.): −5.5%
% body weight change ([2]; LNP with 50 % moles of the compound, fLuc mRNA 0.5 mg/kg i.v.): −2.0%
